The values that follow are results of earlier work, collected in US20090306027A1 (priority 2006, published 2009).

The structures appear in SMILES notation. Where a name gives a salt, the structure may show the parent alone.

For `O=[N+]([O-])O[C@H]1CO[C@H]2[C@@H]1OC[C@H]2O[N+](=O)[O-]` [Diluted isosorbide dinitrate, 1,4,3,6-dianhydro-D-glucitol-2,5-dinitrate], the solubility in water result is “sparingly soluble”. For the same compound, where the note is “organic solvents such as ethanol, ether and chloroform”, the “solubility in organic solvents” value is reported as “freely soluble”.
`NNc1nncc2ccccc12` [Hydralazine hydrochloride, hydralazine hydrochloride]: the solubility in water entry is “soluble”. Further, the solubility in alcohol result (alcohol) is “slightly soluble”. Besides, under “ether”, the solubility in ether entry is recorded as “very slightly soluble”.
